Measurements published in ChEMBL document CHEMBL1159361, “(Z)-sarcodictyin A, a new highly cytotoxic diterpenoid from the soft coral Bellonella albiflora” (J Nat Prod, 2003).
≈ marks a conversion by molar mass, not a printed value.

Test system: HeLa
Assay: Cytotoxicity against human HeLa cells
Assay type: functional, cell-based

SMILES | IC50
COC(=O)/C1=C/[C@@H]2[C@@H](C(C)C)CC=C(C)[C@@H]2C[C@H](OC(=O)/C=C\c2cn(C)cn2)[C@]2(C)C=C[C@@]1(O)O2 | 0.09 µg/mL (≈ 0.181 µM)
CO[C@]12C=C[C@](C)(O1)[C@@H](OC(=O)/C=C/c1cn(C)cn1)C[C@H]1C(C)=CC[C@H](C(C)C)[C@H]1/C=C\2CO [ELEUTHEROBIN AGLYCON] | 0.09 µg/mL (≈ 0.186 µM)
CO[C@]12C=C[C@](C)(O1)[C@@H](OC(=O)/C=C\c1cn(C)cn1)C[C@H]1C(C)=CC[C@H](C(C)C)[C@H]1/C=C\2CO[C@@H]1OC[C@@H](O)[C@@H](O)[C@@H]1OC(C)=O | 0.017 µg/mL (≈ 0.0259 µM)
CCOC(=O)/C1=C/[C@@H]2[C@@H](C(C)C)CC=C(C)[C@@H]2C[C@H](OC(=O)/C=C/c2cn(C)cn2)[C@]2(C)C=C[C@@]1(O)O2 [SARCODICTYIN B] | 0.09 µg/mL (≈ 0.176 µM)
CO[C@]12C=C[C@](C)(O1)[C@@H](OC(=O)/C=C/c1cn(C)cn1)C[C@H]1C(C)=CC[C@H](C(C)C)[C@H]1/C=C\2CO[C@@H]1OC[C@@H](O)[C@@H](O)[C@@H]1OC(C)=O [ELEUTHEROBIN] | 0.017 µg/mL (≈ 0.0259 µM)
